Reference: paper PMC8197855, “Peptide/β-Peptoid Hybrids with Activity against Vancomycin-Resistant Enterococci: Influence of Hydrophobicity and Structural Features on Antibacterial and Hemolytic Properties” (International Journal of Molecular Sciences, 2021)

Key:
[1] = test system: E. faecium and E. faecalis isolates; experiment: MIC summarised over all isolates; type: cell-based, Enterococcus faecium and Enterococcus faecalis; conditions: summary over all isolates
Experimental: (§1) Overnight cultures of the enterococcal isolates were diluted in physiological saline (0.9% NaCl) to reach a turbidity of 0.5 McFarland units (Sensititre® nephelometer and the Sensititre® McFarland Standard). Bacterial suspensions were adjusted to 5 × 10^5 CFU/mL in MHB II or BHI broth containing two-fold dilutions of peptidomimetics or conventional antibiotics in a final volume of 100 µL. The plates were incubated for 24 h at 37 °C without shaking. […] All experiments were performed in three biological replicates.

[2] = test system: E. faecium isolates; type: cell-based, Enterococcus faecium; conditions: 24 h
Experimental: as §1

[3] = test system: E. faecium ATCC 19434; experiment: Broth checkerboard assay with conventional antibiotics; type: cell-based, Enterococcus faecium
Experimental: The strain culture preparation and final volume were the same as in the MIC assay. […] The plates were incubated for 24 h at 37 °C without shaking. […] All experiments were performed in two biological replicates.
To evaluate the effect of the combinations, the fractional inhibitory concentration index (FICI) was calculated for each combination according to:ΣFIC = FICA + FICB = (CA/MICA) + (CB/MICB)
The drug interaction was scored as follows: synergy—FICI ≤ 0.5; no interaction—FICI > 0.5–4; antagonism—FICI > 4 [40].

| Structure (SMILES) | MIC (range) against all E. faecium and E. faecalis isolates [1] [µg/mL] | MIC (range or typical value) against E. faecium [2] [µg/mL] | Effect on the MIC of rifampicin ([3]; compound supplemented at 0.25× MIC) | Reduction in the MIC of rifampicin ([3]; compound supplemented at 0.5× MIC) |
| --- | --- | --- | --- | --- |
| CC(=O)N[C@@H](CCCCNC(=N)N)C(=O)N(CCC(=O)N[C@@H](CCCCNC(=N)N)C(=O)N(CCC(=O)N[C@@H](CCCCNC(=N)N)C(=O)N(CCC(=O)N[C@@H](CCCCNC(=N)N)C(=O)N(CCC(=O)N[C@@H](CCCCNC(=N)N)C(=O)N(CCC(=O)N[C@@H](CCCCNC(=N)N)C(=O)N(CCC(N)=O)[C@@H](C)C1CCCCC1)[C@@H](C)C1CCCCC1)[C@@H](C)C1CCCCC1)[C@@H](C)C1CCCCC1)[C@@H](C)C1CCCCC1)[C@@H](C)C1CCCCC1 [Compound 2, Ac-[hArg-βNsce]6-NH2] | 2 to 4 | – | – | – |
| CCCCCCCC(=O)N[C@@H](CCCCN)C(=O)N(CCC(=O)N[C@@H](CCCCN)C(=O)N(CCC(=O)N[C@@H](CCCCN)C(=O)N(CCC(=O)N[C@@H](CCCCN)C(=O)N(CCC(=O)N[C@@H](CCCCN)C(=O)N(CCC(=O)N[C@@H](CCCCN)C(=O)N(CCC(N)=O)[C@@H](C)c1ccccc1)[C@@H](C)c1ccccc1)[C@@H](C)c1ccccc1)[C@@H](C)c1ccccc1)[C@@H](C)c1ccccc1)[C@@H](C)c1ccccc1 [Compound 10, Oct-[Lys-βNspe]6-NH2] | – | 2 to 8 | no effect | 4–8 fold |
